In patent publication US20060111335A1, “Photoactivated anti-viral and anti-cancer agent” (priority 2002, published 2006):

What was measured:
Calf thymus DNA = assay: Dark association with DNA, UV-Visible titration (Example XI); assay type: binding; conditions: 50 mM pH 7 I=0.15 sodium phosphate buffer (physiological condition)
Protocol: Preparation of DNA solution. Calf thymus DNA (Sigma) was dissolved in 50 mM, pH 7, I=0.15 sodium phosphate buffer (Physiological condition) and sonicated. The purity of the DNA was checked by monitoring the absorption spectrum and the ratio of the absorbance at 260 to 280 nm. The ratio were within the acceptable purity margin (1.8±0.1). The concentration of the Calf thymus DNA per phosphate was determined spectrophotometrically: ε253=6600 for calf thymus DNA^1. The concentration was 2.13 E-3 M.
The resulting solution was diluted 4 times with phosphate buffer. […] 0, 50 μL, 150 μL, 200 μL, 300 μL, 350 μL and 500 μL of DNA solutions were added, mixed well with a small disposable needle, and spectra were recorded again. The concentration of the species, the apparent absorbance at 337 nm, and the apparent extinction coefficients at 337 nm were determined from the absorptions spectra and tabulated in Table 1.
The apparent binding constant, Kapp was determined from the plot of [DNA]/Δεapp versus [DNA], where Δεapp=εf−εapp and Δε=εf−εb^2, where εb and εf correspond to the extinction coefficient of the DNA-bound form of the OCTBP derivatives and the extinction coefficient of the DNA-unbound OCTBP derivatives, respectively. […] Cb=(εfCtotal−Aobserved)/Δε The concentration of the DNA-unbound OCTBP derivatives (Cf) can be determined by Cf=Ctotal−Cb […]

φX-174 plasmid DNA = assay: Photonicking of φX-174 plasmid DNA, gel electrophoresis; assay type: biochemical; conditions: Example IX, dark and upon exposure to light
Protocol: Photolysis with φX-174 Plasmid DNA. Metal complex solutions (with or without quenchers) were saturated with oxygen or argon prior to irradiation. The solutions were further degassed after being mixed with the plasmid. The final solution concentrations were: DPPZPHEN ([…]), φX-174 plasmid DNA (205 μM in base pairs), superoxide dismutase (25 μg/mL), 2-propanol (0.5 M), mannitol (6.25 mM), histidine (8 mM).
Experiments were conducted as described in Example X to evaluate the amount photonicking that occurred in the dark and upon exposure to light for 37TMBP, 56TMBP, OCTBP, BISNMe2, TMOBP, TIOBP, TPBP, BISTAP and BISDPPZ.

M109 cells = assay: Phototoxicity to M109 tumor cells, MTT assay; assay type: cell-based, mouse; conditions: OCTBP, 55 μM (FIG. 10)
Protocol: (§1) Photolysis with Tumor Cells.
Procedures for cell maintenance, cell plating, drug incubation, photolysis and MTT assay are all same as that used for the KB cell lines. A small amount of dark toxicity was observed (about 15%). A considerable amount of killing occurs with light alone after 30 and 40 minutes of irradiation (FIG. 10).

GN4 cells = assay: Phototoxicity to GN4 tumor cells, MTT assay; assay type: cell-based, canine
Protocol: as §1
Media was decanted from the flask. […] Trypsin-EDTA was then decanted and the flask was incubated at 37° C. for 8 minutes. […] Released cells were suspended in 5 mL of media and shaken well. […] The remaining cells were discarded.
Cells were plated, incubated with the drug, and photolysis was conducted as for the KB cell lines.

cell membrane = assay: Cell uptake / passage through the cell membrane
Protocol: OCTBP uptake by KB cells. 11 mg of OCTBP was dissolved in 40 mL of PBS buffer. The solution was vortex stirred for 5 minutes to completely dissolve the solid. The solution was sterile filtered through a 0.2μ nylon syringe filter. The concentration of the solution was determined by measuring the UV absorption at 353 nm (ε353nm=1565 M^−1cm^−1).
Once the cells were 75% confluent media was decanted from the flasks and 8 mL of drug solutions were added to three flasks and 8 mL of PBS buffer solution was added to the control flask. The flasks were incubated at 37° C. for 15, 30 and 45 minutes. Control flask was incubated for 45 minutes. When the flasks were removed, they were washed with 6×10 mL of PBS buffer solution. All the liquid was carefully decanted from the flasks. 1 mL of lysing buffer (1% triton X-100) was added to each of the four flasks. The walls of the flasks were rinsed using disposable pipettes. Once all the contents of the flasks were placed into a 1.5 mL disposable centrifuge tubes (each flask yielded ˜1.2 mL), the tubes were centrifuged at 6000 rpm and at 4° C. for 30 minutes on the Fisher Model 59V high-speed centrifuge. BCA Assay was done to establish the amount of cells in each flask.
Rh content of each flask was determined using an inductively coupled plasma (ICP) instrument (AtomScan16, Thermo Elemental, Franklin, Mass.). From each centrifuge tube 1 mL was pipetted and 370 μL of concentrated HCl was added to form a 10% solution. The samples were heated in a hot water bath at 70° C. for 30 minutes. The samples were centrifuged again and the supernatant liquid was diluted to 8 mL by adding nano-pure water. The samples were analyzed for Rh content by ICP.

[1] = Reversed phase HPLC elution on C8 column as measure of hydrophobicity; assay type: physicochemical; conditions: 45% acetonitrile in 100 mM ammonium acetate pH 5.4
Protocol: Reversed phase high performance liquid chromatography (RP-HPLC) was carried out on C8 columns. Compounds were tested using 20%, 30% and 45% acetonitrile in 100 mM ammonium acetate at pH 5.4 for elution on a C8 column, with the intention of achieving an elution time of about 15 minutes. It was expected that the more hydrophobic a compound, the higher the acetonitrile content one would need for the eluent.

[2] = Photodestruction (photoaquation) with visible light >500 nm, HPLC analysis; assay type: physicochemical; conditions: 0.1 mM aqueous, 8 hours under argon
Protocol: Aqueous solutions (3 mL, 0.1 mM) of the Rh complexes were irradiated for 8 hours under argon using a 450 W Hanovia medium pressure mercury lamp filtered through a uranium yellow glass (cut-off<330 nm) and a 1.5 cm 0.5% (w/v) aqueous solution of K2Cr2O7 (0% transmittance≦500 nm). Photodestruction of the metal complexes was followed by HPLC analysis.

[3] = Dark thermal aquation and thermal base hydrolysis; assay type: physicochemical; conditions: 80° C. with 10% NaOH
From the text: A dissociation/addition mechanism is generally accepted as responsible for the substitution chemistry associated with a hexacoordinated Rh(III) ligand field triplet (Weiland et al., Inorg. Chem., 25:4893 (1986)). The dissociation step is due to the promotion of an electron from the t2g orbital to the eg orbital, which leads to significant weakening of the metal ligand bonds. (Hipps et al., Inorg. Chem., 13:1544 (1974)).

[4] = test system: calf thymus DNA than BSA protein; assay: In vitro kinetic and thermodynamic studies of affinity, DNA versus protein; assay type: binding
cells = assay: Phototoxicity, summary statement of Example XII; assay type: cell-based
KB cells = assay: Phototoxicity to KB tumor cells, MTT assay
Protocol: Photolysis with Tumor Cells. […] At the beginning of an experiment media was removed from all plates and the cells were washed with 1 mL of PBS or Hank's salt solution. Drug solution (2 mL) or buffer solution (2 mL) was added to each dish. […] Cells were incubated, with or without metal complex, for 4 hours. After incubation, the solutions were removed from the dishes and the dishes were washed with 1 mL of PBS or Hank's salt solution. A fresh 1 mL of PBS or Hank's salt solution was added to each dish and these were placed on a turntable that sat on the top part of the photolysis chamber. […] The plates were then incubated for 40-48 hours before a determination of the extent of cell toxicity by MTT assay.
Cells were incubated in 75 cm^2 culture flasks. They were grown in Dulbecco's Modified Eagles Medium (D-MEM) supplemented with 10% heat inactivated fetal bovine serum (FBS), 1% L-glutamine-penicillin-streptomycin and 1% amphotericin-B. When cells were not plated for use in an experiment, they were transferred when they were 75-100% confluent using the following procedure. Media was decanted from the flask. Cells were rinsed 1-2 times with 10 mL of Hank's Balanced salt solution. […] Trypsin-EDTA was then decanted and the cells were released from the wall of the flask by tapping the side of the flask. Released cells were suspended in 5 mL media and 1 mL of this suspension was placed in a new culture flasks containing 20 mL of fresh media. The remaining cells were discarded. A culture flask can be used for 3 transfers.
Usually 16-24 hours before a photolysis experiment, cells were plated in 35×10 mm tissue culture dishes and incubated at 37° C. until the experiment was begun. Cells were about 75-100% confluent in the 75 cm^2 culture flask when plated. After being washed and released from the flask as described above, cells were suspended in 40 mL media and 1.5 mL of suspension was placed in each dish.
The concentration of the solution was 70 μM.
The cell dishes were incubated with drug or Hanks balanced salt solution (1 mL) for 3 hours. After incubation, solutions were decanted from the plates and 1 mL of Hank's Balanced salt solution were placed in each. […] Following photolysis, Hank's Balanced salt solutions were decanted and 1 mL of fresh media was placed in each plate.
Plates were incubated for 65 hours and then analyzed for cell survival by MT assay. 5 mg/mL MTT solution in water was prepared and 100 μL of this solution was added to each plate and the plates were incubated for 1.5 hours. Purple crystals formed from live cells. Media was gently removed from plates using a Pasteur pipette, the purple crystals that remained at the bottom of the dish were dissolved in 6 mL of isopropanol.
Phototoxicity studies with long wavelength light (>400 nm). […]

CC1=C[N]2c3c4c(ccc3=C1C)=C(C)C(C)=C[N]4[Rh+]21([Cl])([Cl])[N]2C=C(C)C(C)=c3ccc4c(c32)[N]1C=C(C)C=4C.[Cl-] [OCTBP, cis-dichlorobis(3,4,7,8-tetramethyl-1,10-phenanthroline) rhodium(III) chloride]
apparent (intrinsic) binding constant Kapp (Calf thymus DNA): 4.25 E3 M
photonicking of φX-174 plasmid DNA (φX-174 plasmid DNA): Only TPBP, BISTAP, BISDPPZ and BISDPPHEN complexes were found to photonick
dark toxicity (M109 cells): about 15%
photo-cell death (GN4 cells; OCTBP 55 μM, 311 nm): no photo-cell death occurred
cell death (GN4 cells; OCTBP 63 μM, >400 nm light, 60 minutes): 25%
photo-initiated cell death (GN4 cells; OCTBP 75 μM, 311 nm, 40 minutes): about 20%
ability to pass through the cell membrane (cell membrane): able to pass through the cell membrane
elution time [1]: about 15 minutes
photodestruction [2]: 9.3 % loss
thermal hydrolysis, rank order [3]: OCTBP≅37TMBP>BISPHEN
affinity toward calf thymus DNA compared with BSA protein [4]: greater affinity toward calf thymus DNA than BSA protein
phototoxicity (cells): are phototoxic
cell death (KB cells; OCTBP 55 μM, >400 nm light, 60 minutes): 40%
dark toxicity (KB cells; OCTBP 70 μM): dark toxicity wasn't observed
dark toxicity (KB cells; OCTBP 80 μM): considerable amount of dark toxicity
